# Experimental data taken from patent US7087642B2 (priority 1999, dated 2006).
# pIC50, pKi: −log10 of the molar value. Where two headings read alike, the source gives them in different places.
# What was measured:
# human PBMC B cells = test: cells; format: cell-based; conditions: read-out: B-cells (IC50)
# human PBMC T cells = test: cells; format: cell-based; conditions: read-out: T-cells (IC50)
# IMPDH human type II = IMPDH human type II (Homo sapiens, UniProt P12268); test: biochemical
SMILES,"pIC50 (human PBMC B cells; Homo sapiens, 72 h)","pIC50 (human PBMC T cells; Homo sapiens, 72 h)",pKi (IMPDH human type II; read-out: Ki),pIC50 (human PBMC B cells),pIC50 (human PBMC T cells),pKi (IMPDH human type II)
COc1cc(NC(=O)Nc2cccc(CNC(=O)OC[C@@H](N)CC#N)c2)ccc1-c1cnco1 [Compound 5],< 6.00,< 6.00,> 8.00,,,
COc1cc(NC(=O)Nc2cccc(CNC(=O)OC[C@H](CC#N)N(C)C)c2)ccc1-c1cnco1 [Compound 6],6.00 to 7.00,6.00 to 7.00,> 8.00,,,
COc1cc(NC(=O)Nc2cccc(CNC(=O)OCC(C)(C)CCC#N)c2)ccc1-c1cnco1 [Compound 7],6.00 to 7.00,6.00 to 7.00,> 8.00,,,
CCC(CCC#N)COC(=O)NCc1cccc(NC(=O)Nc2ccc(-c3cnco3)c(OC)c2)c1 (stereo not drawn) [Compound 8],6.00 to 7.00,6.00 to 7.00,> 8.00,,,
COc1cc(NC(=O)Nc2cccc(CNC(=O)OC[C@H](N)CC#N)c2)ccc1-c1cnco1 [Compound 9],6.00 to 7.00,6.00 to 7.00,> 8.00,,,
COc1cc(NC(=O)Nc2cccc(CNC(=O)OC[C@H](CC#N)NC(=O)CC(C)(C)C)c2)ccc1-c1cnco1 [Compound 10],< 6.00,6.00 to 7.00,> 8.00,,,
COc1cc(NC(=O)Nc2cccc(CNC(=O)OC(COC(C)C)CN(CCC#N)CC(C)C)c2)ccc1-c1cnco1 (stereo not drawn) [Compound 11],6.00 to 7.00,< 6.00,> 8.00,,,
COc1cc(NC(=O)Nc2cccc(CNC(=O)OC[C@@H](CC#N)NC(=O)OC(C)(C)C)c2)ccc1-c1cnco1 [Compound 12],6.00 to 7.00,6.00 to 7.00,> 8.00,,,
COc1cc(NC(=O)Nc2cccc(CNC(=O)OC(CC#N)CC#N)c2)ccc1-c1cnco1 [Compound 13],6.00 to 7.00,6.00 to 7.00,> 8.00,,,
COc1cc(NC(=O)Nc2cccc(CNC(=O)OCCN(CCC#N)CCC#N)c2)ccc1-c1cnco1 [Compound 14],6.00 to 7.00,< 6.00,> 8.00,,,
COc1cc(NC(=O)Nc2cccc(CNC(=O)OC[C@@H](CC#N)N(C)C)c2)ccc1-c1cnco1 [Compound 15],6.00 to 7.00,6.00 to 7.00,> 8.00,,,
CCN(CC)C[C@@H](CC#N)OC(=O)NCc1cccc(NC(=O)Nc2ccc(-c3cnco3)c(OC)c2)c1 [Compound 16],,,> 8.00,< 6.00,< 6.00,
COc1cc(NC(=O)Nc2cccc(CNC(=O)O[C@H](CC#N)CN3CCOCC3)c2)ccc1-c1cnco1 [Compound 18],,,> 8.00,< 6.00,< 6.00,
CCN(CC)C[C@H](CC#N)OC(=O)NCc1cccc(NC(=O)Nc2ccc(-c3cnco3)c(OC)c2)c1 [Compound 19],,,> 8.00,6.00 to 7.00,6.00 to 7.00,
COc1cc(NC(=O)Nc2cccc(CNC(=O)O[C@@H](CC#N)CN3CCOCC3)c2)ccc1-c1cnco1 [Compound 20],,,> 8.00,6.00 to 7.00,6.00 to 7.00,
COc1cc(NC(=O)Nc2cccc(CNC(=O)O[C@@H](CC#N)CN(C)C)c2)ccc1-c1cnco1 [Compound 22],6.00 to 7.00,6.00 to 7.00,> 8.00,,,
COc1cc(NC(=O)Nc2cccc(CNC(=O)O[C@H](CCl)CC#N)c2)ccc1-c1cnco1 [Compound 23],> 7.00,> 7.00,> 8.00,,,
COc1cc(NC(=O)Nc2cccc(CNC(=O)OCCCl)c2)ccc1-c1cnco1 [Compound 24],< 6.00,< 6.00,> 8.00,,,
COc1cc(NC(=O)Nc2cccc(CNC(=O)OC(C)CC#N)c2)ccc1-c1cnco1 (stereo not drawn) [Compound 26],> 7.00,> 7.00,> 8.00,,,
CCC(CC#N)OC(=O)NCc1cccc(NC(=O)Nc2ccc(-c3cnco3)c(OC)c2)c1 (stereo not drawn) [Compound 27],> 7.00,> 7.00,> 8.00,,,
COc1cc(NC(=O)Nc2cccc(CNC(=O)O[C@@H](C)CC#N)c2)ccc1-c1cnco1 [Compound 28],,,> 8.00,6.00 to 7.00,6.00 to 7.00,
COc1cc(NC(=O)Nc2cccc(CNC(=O)O[C@H](C)CC#N)c2)ccc1-c1cnco1 [Compound 29],,,> 8.00,> 7.00,> 7.00,
COc1cc(NC(=O)Nc2cccc(CNC(=O)O[C@@H](C)CN(C)Cc3ccco3)c2)ccc1-c1cnco1 [Compound 30],6.00 to 7.00,< 6.00,> 8.00,,,
CCCC(CC#N)OC(=O)NCc1cccc(NC(=O)Nc2ccc(-c3cnco3)c(OC)c2)c1 (stereo not drawn) [Compound 32],> 7.00,6.00 to 7.00,> 8.00,,,
CCCCC(CC#N)OC(=O)NCc1cccc(NC(=O)Nc2ccc(-c3cnco3)c(OC)c2)c1 (stereo not drawn) [Compound 33],6.00 to 7.00,6.00 to 7.00,> 8.00,,,
CNCCC(OC(=O)NCc1cccc(NC(=O)Nc2ccc(-c3cnco3)c(OC)c2)c1)c1ccccc1 (stereo not drawn) [Compound 34],6.00 to 7.00,< 6.00,> 8.00,,,
COc1cc(NC(=O)Nc2cccc(CNC(=O)OC(CCN(C)C)c3ccccc3)c2)ccc1-c1cnco1 (stereo not drawn) [Compound 35],6.00 to 7.00,6.00 to 7.00,> 8.00,,,

SMILES,"pIC50 (human PBMC B cells; Homo sapiens, 72 h)","pIC50 (human PBMC T cells; Homo sapiens, 72 h)",pKi (IMPDH human type II; read-out: Ki),pIC50 (human PBMC B cells),pIC50 (human PBMC T cells),pKi (IMPDH human type II)
COc1cc(NC(=O)Nc2cccc(CNC(=O)OC(CC[N+](C)(C)C)c3ccccc3)c2)ccc1-c1cnco1 (stereo not drawn) [Compound 36],< 6.00,< 6.00,,,,> 8.00
CCN(CC)CCC(OC(=O)NCc1cccc(NC(=O)Nc2ccc(-c3cnco3)c(OC)c2)c1)C(F)(F)F (stereo not drawn) [Compound 37],6.00 to 7.00,6.00 to 7.00,> 8.00,,,
CCCC(COC)OC(=O)NCc1cccc(NC(=O)Nc2ccc(-c3cnco3)c(OC)c2)c1 (stereo not drawn) [Compound 38],6.00 to 7.00,6.00 to 7.00,> 8.00,,,
COc1cc(NC(=O)Nc2cccc(CNC(=O)O[C@H](CCN(C)C)c3ccccc3)c2)ccc1-c1cnco1 [Compound 39],,,> 8.00,6.00 to 7.00,6.00 to 7.00,
COc1cc(NC(=O)Nc2cccc(CNC(=O)OC(CC#N)C(C)C)c2)ccc1-c1cnco1 (stereo not drawn) [Compound 40],6.00 to 7.00,< 6.00,> 8.00,,,
COCC(C)OC(=O)NCc1cccc(NC(=O)Nc2ccc(-c3cnco3)c(OC)c2)c1 (stereo not drawn) [Compound 41],6.00 to 7.00,6.00 to 7.00,> 8.00,,,
CCC(COC)OC(=O)NCc1cccc(NC(=O)Nc2ccc(-c3cnco3)c(OC)c2)c1 (stereo not drawn) [Compound 42],6.00 to 7.00,6.00 to 7.00,> 8.00,,,
CCC(CCO)OC(=O)NCc1cccc(NC(=O)Nc2ccc(-c3cnco3)c(OC)c2)c1 (stereo not drawn) [Compound 43],6.00 to 7.00,6.00 to 7.00,> 8.00,,,
CCC(CCCO)OC(=O)NCc1cccc(NC(=O)Nc2ccc(-c3cnco3)c(OC)c2)c1 (stereo not drawn) [Compound 44],6.00 to 7.00,6.00 to 7.00,> 8.00,,,
COc1cc(NC(=O)Nc2cccc(CNC(=O)OC(CCO)CCC#N)c2)ccc1-c1cnco1 (stereo not drawn) [Compound 45],6.00 to 7.00,6.00 to 7.00,> 8.00,,,
COc1cc(NC(=O)Nc2cccc(CNC(=O)OC(CC#N)C(C)(C)C)c2)ccc1-c1cnco1 (stereo not drawn) [Compound 46],6.00 to 7.00,6.00 to 7.00,> 8.00,,,
COc1cc(NC(=O)Nc2cccc(CNC(=O)O[C@H](C)CCC#N)c2)ccc1-c1cnco1 [Compound 47],6.00 to 7.00,6.00 to 7.00,> 8.00,,,
COc1cc(NC(=O)Nc2cccc(CNC(=O)OC(CCN3CCOCC3)c3ccccc3)c2)ccc1-c1cnco1 (stereo not drawn) [Compound 48],6.00 to 7.00,6.00 to 7.00,> 8.00,,,
CCC(CCCCO)OC(=O)NCc1cccc(NC(=O)Nc2ccc(-c3cnco3)c(OC)c2)c1 (stereo not drawn) [Compound 49],6.00 to 7.00,6.00 to 7.00,> 8.00,,,
COc1cc(NC(=O)Nc2cccc(CNC(=O)OC(CCN3CCCCC3)c3ccccc3)c2)ccc1-c1cnco1 (stereo not drawn) [Compound 50],< 6.00,< 6.00,> 8.00,,,
COc1cc(NC(=O)Nc2cccc(CNC(=O)O[C@H](CN3CCOCC3)c3ccccc3)c2)ccc1-c1cnco1 [Compound 51],6.00 to 7.00,6.00 to 7.00,> 8.00,,,
COc1cc(NC(=O)Nc2cccc(CNC(=O)O[C@@H](CN3CCOCC3)c3ccccc3)c2)ccc1-c1cnco1 [Compound 52],< 6.00,< 6.00,> 8.00,,,
COc1cc(NC(=O)Nc2cccc(CNC(=O)O[C@@H](CO)CCC#N)c2)ccc1-c1cnco1 [Compound 57],6.00 to 7.00,6.00 to 7.00,> 8.00,,,
COc1cc(NC(=O)Nc2cccc(CNC(=O)OCCCOC(C)=O)c2)ccc1-c1cnco1 [Compound 58],6.00 to 7.00,6.00 to 7.00,> 8.00,,,
COc1cc(NC(=O)Nc2cccc(CNC(=O)O[C@H](CO)CCC#N)c2)ccc1-c1cnco1 [Compound 59],6.00 to 7.00,< 6.00,> 8.00,,,
CC[C@H](CO)OC(=O)NCc1cccc(NC(=O)Nc2ccc(-c3cnco3)c(OC)c2)c1 [Compound 60],6.00 to 7.00,6.00 to 7.00,> 8.00,,,
CC[C@@H](CO)OC(=O)NCc1cccc(NC(=O)Nc2ccc(-c3cnco3)c(OC)c2)c1 [Compound 61],6.00 to 7.00,6.00 to 7.00,> 8.00,,,
COc1cc(NC(=O)Nc2cccc(CNC(=O)O[C@@H](CO)CC#N)c2)ccc1-c1cnco1 [Compound 62],6.00 to 7.00,6.00 to 7.00,> 8.00,,,
COc1cc(NC(=O)Nc2cccc(CNC(=O)O[C@H](CO)CC#N)c2)ccc1-c1cnco1 [Compound 63],6.00 to 7.00,6.00 to 7.00,> 8.00,,,
CCC(CCN1CCOCC1)OC(=O)NCc1cccc(NC(=O)Nc2ccc(-c3cnco3)c(OC)c2)c1 (stereo not drawn) [Compound 65],6.00 to 7.00,6.00 to 7.00,> 8.00,,,
CCN(CC)C[C@H](OC(=O)NCc1cccc(NC(=O)Nc2ccc(-c3cnco3)c(OC)c2)c1)c1ccccc1 [Compound 66],< 6.00,< 6.00,> 8.00,,,
